What was measured:
[1] = test system: LAPC4 human prostate cancer cell line; experiment: Cell line cortisol metabolism: conversion of [3H]-cortisol to cortisone, HPLC
Erlin-2 = experiment: Immunoblot of Erlin-2 in LAPC4 cells and human prostate tissues; type: cell-based
Experimental: For protein analysis, immunoblots were performed as described previously. Li et al., J Clin Endocrinol Metab 98, E1189-1197 (2013). Briefly, total cellular protein was extracted with ice cold RIPA lysis buffer (Sigma-Aldrich) containing protease inhibitors (Roche). 30-50 μg protein was separated by 8% SDS-PAGE gel and then transferred to a nitrocellulose membrane (Millipore). After incubating with the anti-11β-HSD2 antibody (Santa Cruz; 1:3000), anti-11β-HSD1 antibody (Santa Cruz; 1:1000), GR antibody (BD Biosciences; 1:1000), anti-Erlin-2 antibody (Cell Signaling Technology: 1:1000) or anti-AMFR antibody (Proteintech; 1:1000) overnight at 4° C., the appropriate secondary antibody was incubated for 1 hour at room temperature. The chemiluminescent detection system (Thermo Scientific) was used to detect the bands with peroxidase activity. An anti-β-actin antibody (Sigma-Aldrich; 1:5000) was used as a control for sample loading.
Seven fresh prostate tissue cores (60-80 mg) from Patients #5-#11 were obtained from the peripheral zone of radical prostatectomy specimens at Cleveland Clinic, confirmed to have tumor in or in close proximity to cores by an expert prostate cancer pathologist, minced and aliquoted to two parts. One was treated with 10 nM DHEA plus vehicle, and the other was treated with 10 nM DHEA plus 10 μM Enz. […]

11β-HSD2 = target: T1, 11β-HSD2 (Homo sapiens, UniProt P80365); experiment: Direct 11β-HSD2 antagonism: cortisol to cortisone conversion in LAPC4 cells transfected with 11β-HSD2 vector; type: cell-based; details: LAPC4 transfected with 11β-HSD2 vector, [3H]-cortisol 100 nM
T1 construct: FLAG; expressed in transfected cells; host or cells: LAPC4
T1 sequence (P80365 1-405): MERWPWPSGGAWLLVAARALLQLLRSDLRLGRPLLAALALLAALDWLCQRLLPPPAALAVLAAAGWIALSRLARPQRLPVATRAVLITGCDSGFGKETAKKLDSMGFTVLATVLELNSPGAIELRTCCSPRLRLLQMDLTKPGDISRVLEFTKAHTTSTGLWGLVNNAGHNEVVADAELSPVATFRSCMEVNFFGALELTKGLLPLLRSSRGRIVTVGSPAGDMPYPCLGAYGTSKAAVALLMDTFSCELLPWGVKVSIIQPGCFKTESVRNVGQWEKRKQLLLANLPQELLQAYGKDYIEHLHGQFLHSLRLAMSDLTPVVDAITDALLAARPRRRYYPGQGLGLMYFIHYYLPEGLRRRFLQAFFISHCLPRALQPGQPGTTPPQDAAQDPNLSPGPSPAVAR
Experimental: Gene expression. The day before transfection, LAPC4 cells were plated into 12 well plates coated with poly-DL-ornithine (˜7×10^5 cells/well). On the day of transfections, an Erlin-2 expressing plasmid, Erlin-2-Myc-DDK-tagged (OriGene) or 11β-HSD2-expressing plasmid FCIV1-11β-HSD2-FLAG was introduced into the cells with Lipofectamine® 3000 Reagent (Life Technology). After 48 hours, the cells were collected and used for the detection of 11β-HSD2 and Erlin-2 by immunoblot, or treated with Enz for 24 hours to determine the effects on cortisol metabolism by HPLC as described herein.

[2] = test system: LAPC4 xenografts grown in orchiectomized mice; experiment: Xenograft cortisol metabolism: [3H]-cortisol inactivation in freshly harvested tumors; type: in vivo, mouse; details: CRPC xenograft tumors from enzalutamide-treated mice vs orchiectomy alone
Experimental: Xenograft metabolism. LAPC4 cells (˜10^7) were injected subcutaneously with Matrigel (Corning) into surgically orchiectomized NSG mice that were implanted with DHEA pellets (5 mg/pellet, 90-day sustained-release, Innovative Research of America). Fresh xenografts were harvested and ˜40 mg xenograft tissues were minced, and cultured in IMEM with 10% FBS at 37° C. with a mixture of [^3H]-cortisol and non-radiolabeled cortisol. Aliquots of media were collected at the indicated time points, steroids were extracted and concentrated as described above.

11β-HSD2 protein = experiment: Human prostate cancer tissue studies, 11β-HSD2 protein; details: tissues from patients with prostate cancer treated with enzalutamide (in patients or ex vivo 10 μM, 7-8 days)
Experimental: All deidentified human tissues were obtained using institutional review board (IRB)-approved protocols. Pre- and post-Enz lymph node tissues were obtained from CT-guided biopsy of metastatic CRPC from Cleveland Clinic (Patient #3) and Dana-Farber Cancer Institute (Patient #4). Pathologic identification of tumor was done by an expert prostate cancer pathologist. Staining of tissues from Patient #4 was done with frozen section slides that were air dried at room temperature for 5 minutes, followed by rehydration with PBS. Immunofluorescence staining was performed as described above. H&E staining was completed by the imagine core of Biomedical Engineering Department in Lerner Research Institute of Cleveland Clinic.
Paired pre-Enz treatment and post-Enz treatment tissues from Patient #1 and Patient #2 were obtained from patients with localized prostate cancer treated with Enz plus ADT for 2 months prior to the second biopsy in a clinical trial (NCT02064582) at the University of Texas Southwestern Medical Center. Biopsies were obtained using image-guidance with a Koelis Urostation. The biopsy cores were minced into pieces and then added into Soft tissue homogenizing CK14 tubes (Betin Technologies) with 100 μl 6M Urea buffer containing protease inhibitors (Sigma Aldrich). Tissue homogenization and immunoblot analysis were performed as described previously. […]

[3] = test system: GR, HSD11B2, HSD11B1 transcripts; experiment: qPCR of GR, HSD11B2 and HSD11B1 transcripts; type: cell-based, human
Experimental: LAPC4 cells were treated with Enz for 36 days and then seeded into 12 well plates coated with poly-DL-ornithine at 50% confluence. After incubation overnight, the cells were transfected with 11β-HSD2-FLAG plasmid for 48 hours by using the TranslT®-2020 Transfection Reagent (Mirus) according to the protocol provided by the manufacturer, then maintained in phenol-red-free medium with 5% Charcoal:Dextran-stripped FBS for 48 hours before being treated with the indicated drugs. Total RNA was extracted with a GenElute Mammalian Total RNA miniprep kit (Sigma-Aldrich) and 1 μg RNA was reverse-transcribed to cDNA with the iScript cDNA Synthesis Kit (Bio-Rad). An ABI 7500 Real-Time PCR machine (Applied Biosystems) was used to perform the qPCR analysis, using iTaq Fast SYBR Green Supermix with ROX (Bio-Rad) in 96-well plates at a final reaction volume of 10 μl. The qPCR analysis was carried out in triplicate with suitable primers. Each mRNA transcript was quantitated by normalizing the sample values to RPLP0 and to vehicle treated cells (for steroid treated cells). All gene expression studies were repeated in independent experiments.

[4] = long-term Enz treatment, LAPC4 and VCaP

## CNC(=O)c1ccc(N2C(=S)N(c3ccc(C#N)c(C(F)(F)F)c3)C(=O)C2(C)C)cc1F [enzalutamide]
[1]; long enzalutamide exposure (36 days), LAPC4, cells and media
  cortisol levels / conversion of [3H]-cortisol to cortisone: sustains cortisol levels by retarding conversion to cortisone in cells and media
[1]; short term Enz treatment (24 hours), LAPC4
  cortisol metabolism: does not affect cortisol metabolism
Erlin-2; LAPC4 cells
  Erlin-2 expression: consistently up-regulated
Erlin-2; human prostate tissues treated with enzalutamide
  patient tissues with Erlin-2 up-regulation: 8 of 11
11β-HSD2
  direct 11β-HSD2 antagonism: no direct 11β-HSD2 antagonism
[2]
  inactivation of [3H]-cortisol by conversion to cortisone: impaired capability of inactivating [^3H]-cortisol
11β-HSD2 protein
  patient tissues with loss of 11β-HSD2 with treatment: Nine of 11
[3]; LAPC4, 24 hours (acute)
  expression of GR, HSD11B2 or HSD11B1 transcripts: no acute effect on expression of GR, HSD11B2 or HSD11B1
[3]; [4]
  GR transcript: GR transcript increases
  HSD11B2 mRNA: No suppression of HSD11B2 mRNA
